Read-outs that look alike come from different tables or passages of the source.

For series [1], the system named is LOX IMVI. In words: NCI in vitro disease-oriented tumor cells screen. The class given is cell-based, human. As to conditions: Melanoma LOX IMVI, Table 2 (numbering of Examples 1-13), average of at least two testings; for GI50: Homo sapiens, read-out: Cytotoxicity log GI50 (converted).
From the text: (§1) (Activity is defined as log GI50<−4 where GI50 is the molar concentration causing 50% cell growth inhibition).
Series [2] has as its system MALME-3M. In words: NCI in vitro disease-oriented tumor cells screen. The class given is cell-based, human. To be noted: Melanoma MALME-3M, Table 2, average of at least two testings; for GI50: Homo sapiens, read-out: Cytotoxicity log GI50 (converted).
From the text: as §1
In series [3] the test system is M14. In words: NCI in vitro disease-oriented tumor cells screen. Type of series: cell-based, human. To be noted: Melanoma M14, Table 2, average of at least two testings; for GI50: Homo sapiens, read-out: Cytotoxicity log GI50 (converted).
From the text: as §1
In series [4] the test system is SK-MEL-2. In words: NCI in vitro disease-oriented tumor cells screen. As to conditions: Melanoma SK-MEL-2, Table 2, average of at least two testings; for GI50: Homo sapiens, read-out: Cytotoxicity log GI50 (converted). Type of series: cell-based, human.
From the text: as §1
For series [5], the system named is SK-MEL-28. The series is described as follows: NCI in vitro disease-oriented tumor cells screen. The class given is cell-based, human. To be noted: Melanoma SK-MEL-28, Table 2, average of at least two testings; for GI50: Homo sapiens, read-out: Cytotoxicity log GI50 (converted).
From the text: as §1
Series [6] relates to SK-MEL-5. The series is described as follows: NCI in vitro disease-oriented tumor cells screen. As to conditions: Melanoma SK-MEL-5, Table 2 (numbering of Examples 1-13), average of at least two testings; for GI50: Homo sapiens, read-out: Cytotoxicity log GI50 (converted). The class given is cell-based, human.
From the text: as §1
Series [7] has as its system UACC-257. In words: NCI in vitro disease-oriented tumor cells screen. The class given is cell-based, human. As to conditions: Melanoma UACC-257, Table 2, average of at least two testings; for GI50: Homo sapiens, read-out: Cytotoxicity log GI50 (converted).
From the text: as §1
Series [8] relates to UACC-62. In words: NCI in vitro disease-oriented tumor cells screen. The class given is cell-based, human. As to conditions: Melanoma UACC-62, Table 2, average of at least two testings; for GI50: Homo sapiens, read-out: Cytotoxicity log GI50 (converted).
From the text: as §1
For series [9], the system named is HL-60(TB). In words: NCI in vitro disease-oriented tumor cells screen. The class given is cell-based, human. To be noted: Leukemia HL-60(TB), Table 2, average of at least two testings; for GI50: Homo sapiens, read-out: Cytotoxicity log GI50 (converted).
From the text: as §1
Series [10] deals with NCI-H23. In words: NCI in vitro disease-oriented tumor cells screen. Type of series: cell-based, human. As to conditions: Non-Small Cell Lung Cancer NCI-H23, Table 2 (numbering of Examples 1-13), average of at least two testings; for GI50: Homo sapiens, read-out: Cytotoxicity log GI50 (converted).
From the text: as §1
Series [11] concerns NCI-H522. The series is described as follows: NCI in vitro disease-oriented tumor cells screen. Type of series: cell-based, human. To be noted: Non-Small Cell Lung Cancer NCI-H522, Table 2, average of at least two testings; for GI50: Homo sapiens, read-out: Cytotoxicity log GI50 (converted).
From the text: as §1
The subject of series [12] is OVCAR-3. In words: NCI in vitro disease-oriented tumor cells screen. Type of series: cell-based, human. To be noted: Ovarian Cancer OVCAR-3, Table 2 (numbering of Examples 1-13), average of at least two testings; for GI50: Homo sapiens, read-out: Cytotoxicity log GI50 (converted).
From the text: as §1
Series [13] has as its system OVCAR-8. In words: NCI in vitro disease-oriented tumor cells screen. Type of series: cell-based, human. To be noted: Ovarian Cancer OVCAR-8, Table 2, average of at least two testings; for GI50: Homo sapiens, read-out: Cytotoxicity log GI50 (converted).
From the text: as §1
Series [14] relates to HS 578T. The series is described as follows: NCI in vitro disease-oriented tumor cells screen. Type of series: cell-based, human. To be noted: Breast Cancer HS 578T, Table 2, average of at least two testings; for GI50: Homo sapiens, read-out: Cytotoxicity log GI50 (converted).
From the text: as §1
Series [15] has as its system MDA-MB-435. In words: NCI in vitro disease-oriented tumor cells screen. The class given is cell-based, human. As to conditions: Breast Cancer MDA-MB-435, Table 2 (numbering of Examples 1-13), average of at least two testings; for GI50: Homo sapiens, read-out: Cytotoxicity log GI50 (converted).
From the text: as §1
For series [16], the system named is MDA-N. In words: NCI in vitro disease-oriented tumor cells screen. Type of series: cell-based, human. To be noted: Breast Cancer MDA-N, Table 2 (numbering of Examples 1-13), average of at least two testings; for GI50: Homo sapiens, read-out: Cytotoxicity log GI50 (converted).
From the text: as §1
The subject of series [17] is BT-549. In words: NCI in vitro disease-oriented tumor cells screen. The class given is cell-based, human. As to conditions: Breast Cancer BT-549, Table 2, average of at least two testings; for GI50: Homo sapiens, read-out: Cytotoxicity log GI50 (converted).
From the text: as §1
The subject of series [18] is human tumor cell lines.
From the text: as §1
Series [19] has as its system human tumor cell lines. The series is described as follows: NCI in vitro screen, mean over all cell lines tested. To be noted: for GI50: Homo sapiens, read-out: Cytotoxicity log GI50, Mean Value (converted); for Cytotoxicity log GI50, Mean Value: Mean value over all cell lines tested (58 human tumor cell lines), Table 2 (numbering of Examples 1-13).
From the text: as §1

For orientation: GI50 means the concentration that inhibits growth by half. With `CC(O)c1cc2c(s1)C(=O)c1c(C(C)O)csc1C2=O` (stereo not shown) [Compound 14, 2,7-Bis(1′-hydroxyethyl)-4,8-dihydrobenzo [1,2-b:4,5-b′]dithiophene-4,8-dione], the GI50 in series [1] was 55 nM; in series [2] it was 27.5 nM; in [3], 57.5 nM; in series [4], 112 nM; in series [5], 186 nM; in series [6], 12.6 nM. The GI50 was 61.7 nM in series [7]; 32.4 nM in series [8]; 11.2 nM in [9]; 33.9 nM in series [10]; 302 nM in series [11]; 11.7 nM in series [12]. Besides, the concentration for 50% growth inhibition (GI50) in [13] is 219 nM; in series [14] it was 316 nM; in series [15], 17.8 nM; in [16], 20.9 nM; in series [17], 162 nM; in series [19], 148 nM. Also, the “overall cytotoxicity / potency (in words)” value in series [18] is reported as “overall cytotoxicity comparable to the monosubstituted compounds”.

With `CC(=O)c1cc2c(s1)C(=O)c1c(C(C)=O)csc1C2=O` [Compound 13, 2,7-Diacetyl-4,8-dihydrobenzo[1,2-b:4,5-b′]dithiophene-4,8-dione], the GI50 in [1] was 1050 nM; in series [2] it was 1320 nM; in series [3], 1510 nM; in series [4], 1740 nM; in [5], 1780 nM; in series [6] it was 1200 nM. Moreover, the 50% growth inhibitory concentration (GI50) in [7] is 562 nM; in series [8], 1950 nM; in [9] it was 52.5 nM; in [10], 1320 nM; in series [11], 525 nM; in series [12], 229 nM. The GI50 in series [13] was 1450 nM; in series [14], 2400 nM; in [15] it was 178 nM; in [16], 174 nM; in series [17] it was 1740 nM; in series [19], 1170 nM. Besides, the “overall cytotoxicity / potency (in words)” value in [18] is listed as “less active in all cell lines”.

For the compound `CC(=O)c1cc2c(s1)C(=O)c1sc(C(C)=O)cc1C2=O` [Compound 23], the “Cytotoxicity log GI50” value in series [1] is −7.65 M; in [2] it was −6.65 M; in [3] it was −6.36 M; in series [4], −6.79 M; in series [5], −6.69 M; in [6], −6.50 M. Further, the “Cytotoxicity log GI50” value in series [7] is −6.78 M; in series [8], −6.63 M; in [10], −6.54 M; in [11], −6.42 M; in series [12], −7.53 M; in series [13], −6.64 M. For the same compound, the “Cytotoxicity log GI50” value in series [14] is −6.55 M; in series [15] it was −6.64 M; in series [16] it was −6.71 M; in [17], −6.04 M. Besides, in [19], the “Cytotoxicity log GI50, Mean Value” is −6.47 M.

For the compound `CC(O)c1cc2c(s1)C(=O)c1sc(C(C)O)cc1C2=O` (stereo not shown) [Compound 24], the “Cytotoxicity log GI50” value was −6.92 M in series [1]; −6.82 M in series [2]; −6.81 M in series [3]; −6.69 M in series [4]; −6.63 M in series [5]; −6.85 M in series [6]. Further, the “Cytotoxicity log GI50” value is given as −6.79 M in [7]; −6.61 M in [8]; −6.36 M in [9]; −6.72 M in series [10]; −6.40 M in series [11]; −6.44 M in [12]. The “Cytotoxicity log GI50” value in series [13] is −6.58 M; in [14] it was −6.50 M; in [15], −6.80 M; in series [16], −6.83 M; in series [17], −6.71 M. Further, the “Cytotoxicity log GI50, Mean Value” in series [19] was −6.32 M.

With `CC(=O)c1cc2c(s1)C(=O)c1sccc1C2=O` [Compound 19, 2-Acetyl-4,8-dihydrobenzo[1,2-b:5,4-b′]dithiophene-4,8-dione], the concentration for 50% growth inhibition (GI50) in series [1] is less than 10 nM; in series [2], 16.2 nM; in series [3] it was 17.4 nM; in [4] it was 33.1 nM; in series [5], less than 10 nM; in series [6], less than 10 nM. For the same compound, the GI50 is 13.8 nM in [7]; 17 nM in series [8]; 18.2 nM in series [10]; 17.4 nM in series [11]; less than 10 nM in series [12]; 30.9 nM in [13]. The GI50 in series [14] was 36.3 nM; in series [15], less than 10 nM; in series [16], less than 10 nM; in [17], 17.8 nM; in series [19] it was 46.8 nM.

On to `CC(=O)OC(C)c1cc2c(s1)C(=O)c1ccsc1C2=O` (stereo not shown) [Compound 11, 2-(1′-Acetoxyethyl)-4,8-dihydrobenzo[1,2-b:4,5-b′]dithiophene-4,8-dione], for which the GI50 was less than 10 nM in series [1]; less than 10 nM in series [2]; 12.9 nM in series [3]; 26.3 nM in series [4]; 19.1 nM in [5]; 13.5 nM in series [6]. Besides, the GI50 in series [7] is 25.1 nM; in [8] it was 17 nM; in [9] it was less than 10 nM; in [10], 11.2 nM; in [11] it was 148 nM; in [12] it was less than 10 nM. The GI50 in [13] was 36.3 nM; in series [14] it was 155 nM; in series [15], less than 10 nM; in [16], less than 10 nM; in series [17] it was 45.7 nM; in series [19], 39.8 nM. In [18] (human), the “Cytotoxicity log GI50, Mean Value” is on record as −7.40 M.
